The source of these data is ChEMBL document CHEMBL5030556, “Selection and Identification of Novel Antibacterial Agents against Planktonic Growth and Biofilm Formation of Enterococcus faecalis” (J Med Chem, 2021).

Broadly, the MIC is the least concentration at which growth counts as inhibited. The IC50 is the midpoint of a concentration-inhibition curve. In general, inhibition refers to the percentage by which the read-out fell short of the control. Broadly, the CC50 is the concentration giving 50% cytotoxicity.

Data set [1] is described as follows: Hemolytic activity against human erythrocytes at 200 uM incubated for 1 hr at 570 nm by spectrophotometry. In kind it is ADME, tissue-based, Erythrocyte. The settings on record: read-out: Activity.
Data set [2] deals with Enterococcus faecalis. The data set is described as follows: Antibacterial activity against Enterococcus faecalis OG1RF assessed as reduction in visible bacterial growth incubated for 16 to 20 hrs by microdilution broth assay. It counts as functional. The settings on record: time 16-20 hrs. (In general: Broth dilution looks for growth in wells or tubes with falling amounts of substance.)

The subject of data set [3] is Enterococcus faecalis. Description: Bacteriostatic activity against planktonic cells of Enterococcus faecalis OG1RF measured by microdilution broth assay. In kind it is functional, organism-based.
Data set [4] is described as follows: Inhibition of Enterococcus faecalis OG1RF YycG autophosphorylation by Kinase-Glo luminescent kinase assay.
The test system of data set [5] is Enterococcus faecalis. The data set is described as follows: Antibiofilm activity against Enterococcus faecalis FB-1 assessed as inhibition of biofilm maturation measured after 24 hr. In kind it is functional, organism-based.
Data set [6] deals with Staphylococcus aureus. The data set is described as follows: Antibacterial activity against Staphylococcus aureus ATCC 29213 assessed as reduction in visible bacterial growth incubated for 16 to 20 hrs by microdilution broth assay. In kind it is functional. The settings on record: time 16-20 hrs.
Data set [7] has as its system Staphylococcus epidermidis. Description: Antibacterial activity against Staphylococcus epidermidis ATCC 35984 assessed as reduction in visible bacterial growth incubated for 16 to 20 hrs by microdilution broth assay. It counts as functional. The settings on record: time 16-20 hrs.
Data set [8] deals with Enterococcus faecalis. The data set is described as follows: Antibacterial activity against Enterococcus faecalis FB-1 assessed as reduction in visible bacterial growth incubated for 16 to 20 hrs by microdilution broth assay. In kind it is functional. The settings on record: time 16-20 hrs.
Data set [9] has as its system Staphylococcus aureus. Description: Antibacterial activity against Staphylococcus aureus ATCC 35556 assessed as reduction in visible bacterial growth incubated for 16 to 20 hrs by microdilution broth assay. In kind it is functional. The settings on record: time 16-20 hrs.
Data set [10] relates to Enterococcus faecalis. The data set is described as follows: Bactericidal activity against Enterococcus faecalis OG1RF assessed as reduction in bacterial colonies incubated for 16 to 20 hrs by microdilution broth analysis. It counts as functional. The settings on record: time 16-20 hrs, read-out: MBC99.9.
The subject of data set [11] is Enterococcus faecalis. The data set is described as follows: Antimicrobial activity against Enterococcus faecalis OG1RF assessed as reduction in visible bacterial growth incubated for 16 to 20 hrs by microdilution broth assay. It counts as functional. The settings on record: time 16-20 hrs.
For another data set, the system named is Escherichia coli. The data set is described as follows: Antibacterial activity against Escherichia coli […] assessed as reduction in visible bacterial growth incubated for 16 to 20 hrs by microdilution broth assay. In kind it is functional. The settings on record: time 16-20 hrs.
A further data set has as its system Streptococcus agalactiae. Description: Antibacterial activity against Streptococcus agalactiae NSGC64 assessed as reduction in visible bacterial growth incubated for 16 to 20 hrs by microdilution broth assay. In kind it is functional. The settings on record: time 16-20 hrs.
For another data set, the system named is Enterococcus faecium. The data set is described as follows: Antibacterial activity against Enterococcus faecium EF16M64 assessed as reduction in visible bacterial growth incubated for 16 to 20 hrs by microdilution broth assay. It counts as functional. The settings on record: time 16-20 hrs.
Data set [12] concerns Enterococcus faecalis. The data set is described as follows: Antibiofilm activity against Enterococcus faecalis FB-1 assessed as eradication of mature biofilm by semiquantitative microtiter assay. It counts as functional, organism-based.
The subject of data set [13] is Enterococcus faecalis. Description: Inhibition of biofilm formation of Enterococcus faecalis FB-1 assessed as inhibitory rate of formation at 100 uM for 24 hrs measured at 570 nm by crystal violet staining based spectrophotometry. It counts as functional.
Data set [14] is described as follows: Cytotoxicity against african green monkey Vero cells assessed as inhibition of cell growth by MTT assay. In kind it is cell-based. The settings on record: chlorocebus sabaeus. Background: Formazan colour is commonly taken as a measure of viable cells.
Data set [15] can be described thus: Hemolytic activity against human erythrocytes at 50 uM incubated for 1 hr at 570 nm by spectrophotometry. It counts as ADME, tissue-based, Erythrocyte. The settings on record: read-out: Activity.
For data set [16], the system named is Staphylococcus epidermidis. Description: Antibacterial activity against Staphylococcus epidermidis ATCC 12228 assessed as reduction in visible bacterial growth incubated for 16 to 20 hrs by microdilution broth assay. It counts as functional. The settings on record: time 16-20 hrs.
The test system of data set [17] is Enterococcus faecalis. The data set is described as follows: Antibiofilm activity against Enterococcus faecalis FB-1 assessed as inhibition of biofilm infection at 25 uM by fluid shear system. In kind it is functional, organism-based.
The subject of data set [18] is Enterococcus faecalis. Description: Antibacterial activity against Enterococcus faecalis ATCC 29212 assessed as reduction in visible bacterial growth incubated for 16 to 20 hrs by microdilution broth assay. In kind it is functional. The settings on record: time 16-20 hrs.
Data set [19] relates to Enterococcus faecalis. Description: Antibiofilm activity against Enterococcus faecalis assessed as reduction in amount of viable biofilm-embedded bacterial cells at 50 uM measured by YTO 9/PI staining followed by confocal laser scanning microscopy. It counts as functional.

Calls of active or inactive are those of the source. The calls are words filed in the database; no cut-off is given here.

`O=C(O)COc1ccc(/C=C2/SC(=O)N(Cc3ccc(F)cc3)C2=O)cc1Br`: the hemolysis at 1 h, 200 µM in [1] was determined as 22.7%. Further, the MIC (with Enterococcus faecalis [2]; in the data set with Staphylococcus aureus [6]; in data set [7]; in the data set on Enterococcus faecalis [8]; in the data set with Staphylococcus aureus [9]; in the data set on Enterococcus faecalis [11]) was over 200 µM each time. Moreover, the MIC (in the data set with Escherichia coli; in the data set on Streptococcus agalactiae; in the data set with Enterococcus faecium; in data set [16]; in the data set with Enterococcus faecalis [18]) was over 200 µM in each case. Besides, the outcome in the data set on Enterococcus faecalis [3] and in the data set on Enterococcus faecalis [12] was inactive. The molecule further came in with an IC50 in [4] of 27.4 µM. In addition, the Activity entry in the data set on Enterococcus faecalis [5] is “Dose-Dependent Effect”. Further, the MBC with Enterococcus faecalis [10] is over 200 µM. The inhibition at 100 µM with Enterococcus faecalis [13] is 83.5%. The CC50 in [14] was over 200 µM. In addition, the hemolysis at 1 h, 50 µM in data set [15] was 8.36%. Further, in the data set with Enterococcus faecalis [17], the outcome was Active.
With `O=C(C1=C(O)C(=O)N(c2nnc(SCc3ccc(Cl)cc3)s2)C1c1cccc(O)c1)c1cc2ccccc2o1` (configuration not stated), the hemolysis at 1 h, 200 µM in [1] was 7.81%. In the data set with Enterococcus faecalis [3], the result was inactive. Half-maximal inhibition in [4] (IC50) was put at 8.3 µM. Moreover, the Activity result was “Dose-Dependent Effect” in the data set with Enterococcus faecalis [5] and 27.79% with Enterococcus faecalis [19]. Besides, the MBC in the data set on Enterococcus faecalis [10] was over 200 µM. The MIC in the data set on Enterococcus faecalis [11] is over 200 µM. Further, the inhibition at 100 µM in the data set with Enterococcus faecalis [13] is 72%. The half-maximal cytotoxic concentration (CC50) in data set [14] was over 200 µM. Also, the hemolysis at 1 h, 50 µM in data set [15] was 6.26%.
Take `O=C(C1=C(O)C(=O)N(c2nnc(SCc3ccccc3)s2)C1c1ccccc1)c1cc2ccccc2o1` (configuration not stated): the hemolysis at 1 h, 200 µM in data set [1] came out at 7.01%. Further, the result with Enterococcus faecalis [3] was inactive. Also, in [4], the IC50 was determined as 22 µM. Further, the Activity entry was “Dose-Dependent Effect” with Enterococcus faecalis [5] and 26.66% in the data set on Enterococcus faecalis [19]. For the same molecule, the MBC in the data set on Enterococcus faecalis [10] is over 200 µM. In addition, in the data set with Enterococcus faecalis [11], the MIC was over 200 µM. Besides, the inhibition at 100 µM in the data set on Enterococcus faecalis [13] worked out at 72.2%. The CC50 in data set [14] was over 200 µM. Moreover, the hemolysis at 1 h, 50 µM in [15] was found to be 4.16%.
In the case of `CCCCCCCCCC(=O)N[C@@H](Cc1c[nH]c2ccccc12)C(=O)N[C@H](CC(N)=O)C(=O)N[C@@H](CC(=O)O)C(=O)N[C@@H]1C(=O)NCC(=O)N[C@@H](CCCN)C(=O)N[C@@H](CC(=O)O)C(=O)N[C@H](C)C(=O)N[C@@H](CC(=O)O)C(=O)NCC(=O)N[C@H](CO)C(=O)N[C@@H]([C@H](C)CC(=O)O)C(=O)N[C@@H](CC(=O)c2ccccc2N)C(=O)O[C@@H]1C`, in the data set with Enterococcus faecalis [19], the Activity turned out to be 8.45%.
`O=C(C1=C(O)C(=O)N(c2nnc(SCc3ccccc3)s2)C1c1ccccc1F)c1cc2ccccc2o1` (configuration not stated): the hemolysis at 1 h, 200 µM in data set [1] stood at 8.31%. Further, the result in the data set with Enterococcus faecalis [3] and in the data set with Enterococcus faecalis [12] was inactive. This molecule also yielded an IC50 in [4] of over 200 µM. In addition, the Activity entry in the data set with Enterococcus faecalis [5] was “Dose-Dependent Effect”. In the data set with Enterococcus faecalis [10], the MBC was over 200 µM. The MIC with Enterococcus faecalis [11] is over 200 µM. Also, in the data set with Enterococcus faecalis [13], the inhibition at 100 µM was 73.8%. Moreover, the CC50 in data set [14] was over 200 µM. Further, in [15], the hemolysis at 1 h, 50 µM came to 4.44%.
